Test results reported in patent publication US11090326B2, “Fixed-dose pharmaceutical composition comprising rifabutin, clarithromycin, and clofazimine” (RedHill Biopharma Ltd., priority 2008, dated 2021).
Like-named read-outs stand apart in the source and are kept apart here. Blank lines part the entries; values can stand above or below the compound they belong to.

How the values were obtained:
[1] = Bioavailability study: single-dose plasma pharmacokinetics of 2 test formulations of triple combination capsules
Text: The objectives of this study were to 1) determine and compare the rate and extent of absorption and 2) to assess the safety and tolerability of 2 test formulations of a combination product of clarithromycin, rifabutin and clofazimine (herein after “triple combination”).
This study followed a randomized, open-label, single-dose, 1-way 2-arm parallel design in 24 normal, healthy, non-smoking male and female subjects.
Subjects were admitted to the clinic the day before dosing, and remained until the 24.00 hour post-dose blood draw, at which time they were allowed to leave the clinic and after which they were required to return for subsequent blood draws.
Following an overnight fast of at least 10 hours, subjects began a high fat content meal 30 minutes prior to drug administration. Subjects consumed this meal in 30 minutes or less; however, the study drug was administered 30 minutes after the start of the meal. The FDA standard high-fat content breakfast consisted of the following: 2 eggs fried in butter, 2 strips of bacon, 2 slices of toast with butter, 4 ounces of hash brown potatoes and 8 fluid ounces (about.240 mL) of whole milk.
Following an overnight fast of at least 10 hours, and 30 minutes after the start of a high fat content meal, subjects received one of the following treatments at 0.00 hour on Day 1 of the study period according to a randomization scheme:
The medications were administered orally. The drugs were given 1 or more capsules at a time. All capsules were ingested within 1 minute.
During the study period, 19 blood samples (1×4 mL and 1×6 mL tube for each sampling time point) were collected from each subject by direct venipuncture or by Vasofix® intravenous catheter using pre-cooled, labelled blood collection tubes containing potassium ethylenediaminetetraacetic acid (EDTA) as the anticoagulant. Blood samples were collected at 0.00 (pre-dose), 0.25, 0.50, 0.75, 1.00, 1.50, 2.00, 2.50, 3.00, 4.00, 6.00, 8.00, 10.00, 12.00, 16.00, 24.00, 48.00, 60.00, and 96.00 hours post-dose. The clock times of all blood draws for plasma concentration analyses were recorded.
The 6 mL tubes were used to measure clarithromycin and 14-hydroxyclarithromycin. The 4 mL tubes were used to measure rifabutin, 25-O-desacetylrifabutin and clofazimine.
(§1) The blood samples were stored in an ice bath before centrifugation and were centrifuged as soon as possible under refrigerated conditions (at 4° C.) at 3500 rpm for 7 minutes. The collected plasma from each blood collection tube was aliquotted into pre-cooled labelled polypropylene tubes. A minimum of 1.5 mL of plasma was transferred from the 6 mL tubes into the first polypropylene tube, and all remaining plasma, if any, was transferred into a second polypropylene tube. The samples were kept in an ice bath, and flash frozen in an upright position, then stored at −70±10° C. until assayed.
as §1, with “In another procedure, the blood” for “The blood”, “of 0.8” for “of 1.5”, “the 4 mL,” for “the 6 mL”
Upon completion of the clinical portion of the study, all samples were analysed for clarithromycin and 14-hydroxyclarithromycin in the plasma samples or for rifabutin, 25-O-desacetylrifabutin and clofazimine in the plasma samples.
Clarithromycin and 14-hydroxyclarithromycin—Information about these analytes was obtained using routine methods known in the art.

[2] = clinical; conditions: human, in vivo, 90 mg
Text: Gatti et al. (1998) conducted a comparative study of rifabutin absorption and disposition in HIV-infected patients with or without wasting syndrome.

[3] = single 300 mg dose of rifabutin, fasting; 10 HIV patients without wasting syndrome (Gatti et al., 1998); cited from earlier work
[4] = Literature Cmax of clofazimine (Nix et al., 2004); conditions: in vivo; clofazimine 20 mg dose; read-out: Cmax, literature value scaled to dose of the study
[5] = clofazimine 200 mg dose, fed (Nix et al., 2004); cited from earlier work
[6] = Literature Cmax of clarithromycin (Chu et al., 1993); conditions: in vivo; clarithromycin 190 mg dose; read-out: Cmax, literature value scaled to dose of the study
Method: The results obtained from dry and PEG formulations of triple combination capsules were approximately proportional to literature findings. Chu et al. (1993) reported that the rise of clarithromycin peak concentrations occur non-linearly to dose which might explain any slight disproportionality between the literature values and those obtained from triple combination capsules dry and PEG formulations.
Clarithromycin—500 mg (four 125-mg capsules, Abbott Laboratories) every 12 hours for 5 doses.

[7] = single dose of 250 mg of clarithromycin; cited from earlier work
[8] = rifabutin, geometric mean ratio dry/PEG formulation of triple combination capsules
[9] = 25-O-desacetylrifabutin, geometric mean ratio dry/PEG formulation of triple combination capsules
[10] = clofazimine, geometric mean ratio dry/PEG formulation of triple combination capsules
[11] = clarithromycin, geometric mean ratio dry/PEG formulation of triple combination capsules

- Relative bioavailability, Ratio of Means, AUC0-inf [1, 8]: 73.23%
- Relative bioavailability, Ratio of Means, AUC0-t [1, 8]: 77.00%
- Relative bioavailability, Ratio of Means, Cmax [1, 8]: 88.74%
- Cmax [2]: 102 ng/mL
Compound: CO[C@H]1/C=C/O[C@@]2(C)Oc3c(C)c(O)c4c(c3C2=O)C2=NC3(CCN(CC(C)C)CC3)NC2=C(NC(=O)/C(C)=C\C=C\[C@H](C)[C@H](O)[C@@H](C)[C@@H](O)[C@@H](C)[C@H](OC(C)=O)[C@@H]1C)C4=O [RIFABUTIN, rifabutin]
- Cmax (peak concentration) [3]: 340 ± 140 ng/mL

Compound: 25-O-desacetylrifabutin [25-0-DESACETYLRIFABUTIN]
- Relative bioavailability, Ratio of Means, AUC0-t [1, 9]: 73.95%
- Relative bioavailability, Ratio of Means, Cmax [1, 9]: 73.43%
- Relative bioavailability, Ratio of Means, AUC0-inf ([1]; 25-O-desacetylrifabutin, geometric mean ratio dry/PEG formulation, approximately 65% of subjects excluded): 86.06%

- Relative bioavailability, Ratio of Means, AUC0-t [1, 10]: 102.38%
- Relative bioavailability, Ratio of Means, Cmax [1, 10]: 118.63%
- Relative bioavailability, Ratio of Means, AUC0-t ([1]; clofazimine, geometric mean ratio dry/PEG formulation of triple combination capsules, listed as clofazimine): 102%
- Relative bioavailability, Ratio of Means, AUC0-inf ([1]; clofazimine, geometric mean ratio dry/PEG formulation, approximately 50% (A) and 75% (B) of subjects excluded): 120.52%
- Cmax [4]: 23 ng/mL
Compound: CC(C)/N=c1\cc2n(-c3ccc(Cl)cc3)c3ccccc3nc-2cc1Nc1ccc(Cl)cc1 [CLOFAZIMINE, clofazimine]
- Cmax [5]: 227 ng/mL

- Relative bioavailability, Ratio of Means, AUC0-inf [1, 11]: 80.78%
- Relative bioavailability, Ratio of Means, AUC0-t [1, 11]: 80.34%
- Relative bioavailability, Ratio of Means, Cmax [1, 11]: 75.03%
- Cmax [6]: 593 ng/mL
Compound: CC[C@H]1OC(=O)[C@H](C)[C@@H](O[C@H]2C[C@@](C)(OC)[C@@H](O)[C@H](C)O2)[C@H](C)[C@@H](O[C@@H]2O[C@H](C)C[C@H](N(C)C)[C@H]2O)[C@](C)(OC)C[C@@H](C)C(=O)[C@H](C)[C@@H](O)[C@]1(C)O [CLARITHROMYCIN, clarithromycin]
- Cmax [7]: 780 ± 250 ng/mL
